# Results reported in ChEMBL document CHEMBL2331180, “Synthetic glycolipids for glioma growth inhibition developed from neurostatin and NF115 compound” (2013).
# Active and inactive are the calls of the source. No cut-off for these calls is given here.
# How the values were obtained:
# C6 = experiment: Antitumor activity against rat C6 cells transplanted to rat assessed as reduction in tumor growth at 8 mg/kg, intra-tumor treated after 1 week of tumor injection measured up to 15 days relative to untreated control; type: functional, organism-based; design: dose 8 mg/kg
# [1] = Antiproliferative activity against human […] cells assessed as inhibitory activity measured after 36 hrs by [3H]thymidine incorporation assay; type: functional; details: read-out: ID50 (the source's name)
# [2] = Antiproliferative activity against human […] cells assessed as Rho GDP dissociation inhibitor (GDI) alpha gene repression at IC50 concentration after 24 hrs by microarray analysis relative to control; type: functional
# [3] = Antiproliferative activity against human […] cells assessed as Human Bcl-x beta gene repression at IC50 concentration after 24 hrs by microarray analysis relative to control; type: functional
# [4] = Antiproliferative activity against human […] cells assessed as Tumor protein p53 gene repression at IC50 concentration after 24 hrs by microarray analysis relative to control; type: functional
# [5] = Antiproliferative activity against human […] cells assessed as Human epsilon 14-3-3 protein gene repression at IC50 concentration after 24 hrs by microarray analysis relative to control; type: functional
# [6] = Antiproliferative activity against human […] cells assessed as Solute carrier family 4, anion exchanger, member 2 (erythrocyte membrane protein band 3-like 1) gene repression at IC50 concentration after 24 hrs by microarray analysis relative to control; type: functional
SMILES,Activity (C6),IC50 [1] [µM],fold change (FC) [2],fold change (FC) [3],fold change (FC) [4],fold change (FC) [5],fold change (FC) [6]
CCCCCCCCCCCCCCCCO[C@H]1O[C@H](COCC(O)CO)[C@@H](O)[C@H](O)[C@H]1NC(=O)CCCC (some centres not stated),inactive,4.6,,,,,
CCCCCCCCCCCCCCCCO[C@H]1O[C@H](CO)[C@@H](O)[C@H](O)[C@H]1NC(C)=O,inactive,13,,,,,
CCCCCCCCO[C@H]1O[C@H](COCC(CO)(CO)CO)[C@@H](O)[C@H](O)[C@H]1NC(C)=O,,180,0.3,0.3,0.5,0.5,0.7
CCCCCCCCCCCCCCCCO[C@H]1O[C@H](COCC(CO)(CO)COS(=O)(=O)O)[C@@H](O)[C@H](O)[C@H]1NC(=O)CCCC,Active,3.2,,,,,
